In brackets after ≈: the same amount, converted by molar mass.
What follows are compounds tested on SAUR 9218 (assay: MIC Test Method, standard agar dilution). Settings: agar dilution, Mueller Hinton agar, incubated overnight at 35° C.; lowest concentration that inhibits visible growth.
Type: cell-based
Experimental: The in vitro MiCs of test compounds were determined by a standard agar dilution method. A stock drug solution of each analog was prepared in the preferred solvent, usually DMSO:H2O (1:3). Serial 2-fold dilutions of each sample are made using 1.0 ml aliquots of sterile distil]ed water. To each 1.0 ml aliquot of drug was added 9 ml of molten Mueller Hinton agar medium. The drug-supplemented agar was mixed, poured into 15×100 mm petri dishes, and allowed to solidify and dry prior to inoculation.
Vials of each of the test organisms are maintained frozen in the vapor phase of a liquid nitrogen freezer. Test cultures are grown overnight at 35° C. on the medium appropriate for the organism. Colonies are harvested with a sterile swab, and cell suspensions are prepared in Trypticase Soy broth (TSB) to equal the turbidity of a 0.5 McFamland standard. A 1:20 dilution of each suspension was made in TSB. The plates containing the drug supplemented agar are inoculated with a 0.001 ml drop of the cell suspension using a Steers replicator, yielding approximately 10^4 to 10^5 cells per spot. The plates are incubated overnight at 35° C.
Following incubation the Minimum Inhibitory Concentration (MIC μg/ml), the lowest concentration of drug that inhibits visible growth of the organism, was read and recorded.

Structure (SMILES)	SAUR 9218 MIC
CN(c1ccc(Cl)cc1)S(=O)(=O)c1cc(C(=O)Nc2ccc(Br)cc2C(=O)O)cs1 [drawing 825]	2 µg/mL

Same assay, conditions: agar dilution, Mueller Hinton agar, incubated overnight at 35° C.; lowest concentration that inhibits visible growth; read-out: SAUR 9218 MIC

Structure (SMILES)	MIC
CCN(CC)C(=O)C1CCCN(S(=O)(=O)c2cc(C(=O)Nc3ccc(C#N)cc3C(=O)O)sc2C)C1 (centres unmarked)	64 µg/mL (≈ 120 µM)
N#Cc1ccc(NC(=O)c2ncc(-c3ccccc3)s2)c(C(=O)O)c1	1 µg/mL (≈ 2.86 µM)
CN(C)c1ccc2onc(C(=O)Nc3ccc(C#N)cc3C(=O)O)c2c1	0.25 µg/mL (≈ 0.714 µM)
CCCn1c(C(=O)Nc2ccc(Cl)cc2C(=O)O)cc2ccccc21	4 µg/mL (≈ 11.2 µM)
N#Cc1ccc(NC(=O)c2cc3ccccc3n2CC2CCCCC2)c(C(=O)O)c1	1 µg/mL (≈ 2.49 µM)
N#Cc1ccc(NC(=O)c2cc3cc(-c4ccccc4)oc3cn2)c(C(=O)O)c1	8 µg/mL (≈ 20.9 µM)
CCN(CC)c1ccc(NS(=O)(=O)c2cc(C(=O)Nc3ccc(Br)cc3C(=O)O)cs2)cc1	> 128 µg/mL
Cn1c(C(=O)Nc2ccc(C#N)cc2C(=O)O)cc2ccc(NS(C)(=O)=O)cc21	4 µg/mL (≈ 9.7 µM)
CCC(C)Sc1cnc(C(=O)Nc2ccc(Br)cc2C(=O)O)cn1 (centres unmarked)	0.5 µg/mL (≈ 1.22 µM)
CCCOc1ccccc1C(=O)Nc1cccc2cc(C(=O)Nc3ccc(C#N)cc3C(=O)O)[nH]c12	1 µg/mL (≈ 2.07 µM)
N#Cc1ccc(NC(=O)c2cc3cccc(NC(=O)Cc4ccc(Cl)c(Cl)c4)c3[nH]2)c(C(=O)O)c1	0.125 µg/mL (≈ 0.246 µM)
CC(=O)Nc1ccc(S(=O)(=O)N(c2ccc3cc(C(=O)Nc4ccc(C#N)cc4C(=O)O)n(C)c3c2)S(=O)(=O)c2ccc(NC(C)=O)cc2)cc1	1 µg/mL (≈ 1.37 µM)
COc1cccc2cc(C(=O)Nc3ccc(C#N)cc3C(=O)O)oc12	4 µg/mL (≈ 11.9 µM)
O=C(Nc1ccc(Br)cc1C(=O)O)c1ccc(-c2ccc(Cl)cc2)o1	32 µg/mL (≈ 76.1 µM)
C[C@@H]1CCCC1Oc1ccccc1-c1cc(C(=O)Nc2ccc(C#N)cc2C(=O)O)no1 (some centres unmarked)	0.125 µg/mL (≈ 0.29 µM)
N#Cc1ccc(NC(=O)c2noc3ccc(-c4ccccc4C(F)(F)F)cc23)c(C(=O)O)c1	0.125 µg/mL (≈ 0.277 µM)
Cc1noc(C)c1S(=O)(=O)Nc1ccc2cc(C(=O)Nc3ccc(C#N)cc3C(=O)O)n(C)c2c1	2 µg/mL (≈ 4.05 µM)
N#Cc1ccc(NC(=O)c2cc(-c3ccccc3Cl)on2)c(C(=O)O)c1	0.125 µg/mL (≈ 0.34 µM)
CC(=O)Nc1ccccc1-c1ccc2c(C(=O)Nc3ccc(C#N)cc3C(=O)O)noc2c1	0.5 µg/mL (≈ 1.14 µM)
Cc1sc(C(=O)Nc2ccc(C#N)cc2C(=O)O)cc1S(=O)(=O)N(C)CC(O)c1ccccc1 (centres unmarked)	2 µg/mL (≈ 4 µM)
N#Cc1ccc(NC(=O)c2cc3cccc(NC(=O)Cc4ccccc4)c3[nH]2)c(C(=O)O)c1	0.125 µg/mL (≈ 0.285 µM)
N#Cc1ccc(NC(=O)c2cnc(CCc3ccccc3)cn2)c(C(=O)O)c1	16 µg/mL (≈ 43 µM)
N#Cc1ccc(NC(=O)c2noc3ccc(S(=O)(=O)N(CCO)CCO)cc23)c(C(=O)O)c1	0.5 µg/mL (≈ 1.05 µM)
COc1cc(C(=O)Nc2ccc(Br)cc2C(=O)O)nn1Cc1ccccc1	128 µg/mL (≈ 297 µM)
N#Cc1ccc(NC(=O)c2cc3cccc(NC(=O)c4cc5ccccc5[nH]4)c3[nH]2)c(C(=O)O)c1	0.25 µg/mL (≈ 0.539 µM)
CS(=O)(=O)Nc1ccc(-c2cc3onc(C(=O)Nc4ccc(C#N)cc4C(=O)O)c3cc2NS(C)(=O)=O)c(C(F)(F)F)c1	0.125 µg/mL (≈ 0.196 µM)

Structure (SMILES)	MIC
O=C(Nc1ccc(Br)cc1C(=O)O)c1cnc(CC[C@H](O)CO)cn1	64 µg/mL (≈ 156 µM)
CCCCCCSc1ccc(C(=O)Nc2ccc(C#N)cc2C(=O)O)nc1	0.125 µg/mL (≈ 0.326 µM)
N#Cc1ccc(NC(=O)c2ccc(N3CCOCC3)nc2)c(C(=O)O)c1	64 µg/mL (≈ 182 µM)
Cc1ccc(C(=O)Nc2ccc(Br)cc2C(=O)O)s1	64 µg/mL (≈ 188 µM)
CC(C)Cn1c(C(=O)Nc2ccc(Cl)cc2C(=O)O)cc2ccccc21	2 µg/mL (≈ 5.39 µM)
CNS(=O)(=O)c1ccc2onc(C(=O)Nc3ccc(Br)cc3C(=O)O)c2c1	0.125 µg/mL (≈ 0.275 µM)
O=C(Nc1ccc(Cl)cc1C(=O)O)c1cc(-c2ccccc2F)on1	0.25 µg/mL (≈ 0.693 µM)
COC1CCn2c(C(=O)Nc3ccc(C#N)cc3C(=O)O)cc3cccc1c32 (centres unmarked)	0.5 µg/mL (≈ 1.33 µM)
COc1ccc(-c2cnc(C(=O)Nc3ccc(C#N)cc3C(=O)O)cn2)c(OC)c1OC	> 128 µg/mL
O=C(Nc1ccc(Br)cc1C(=O)O)c1ncc(-c2ccccc2)o1	1 µg/mL (≈ 2.58 µM)
O=C(O)c1cc(Br)ccc1NC(=O)c1cc(SCc2ccccc2)cc[n+]1[O-]	8 µg/mL (≈ 17.4 µM)
CS(=O)(=O)Nc1ccc2c(C(=O)Nc3ccc(C#N)cc3C(=O)O)noc2c1	2 µg/mL (≈ 5 µM)
CS(=O)(=O)c1ncc(Cl)c(C(=O)Nc2ccc(Cl)cc2C(=O)O)n1	> 128 µg/mL
N#Cc1ccc(NC(=O)c2nc3ccccc3s2)c(C(=O)O)c1	0.25 µg/mL (≈ 0.773 µM)
Cn1nc(-c2ccccc2)cc1C(=O)Nc1ccc(Br)cc1C(=O)O	64 µg/mL (≈ 160 µM)
N#Cc1ccc(NC(=O)c2ncc(-c3ccco3)o2)c(C(=O)O)c1	2 µg/mL (≈ 6.19 µM)
Cc1sc(C(=O)Nc2ccc(C#N)cc2C(=O)O)cc1S(=O)(=O)N1CCCC1C (centres unmarked)	8 µg/mL (≈ 18.5 µM)
N#Cc1ccc(NC(=O)c2cc3cccc(NC(=O)Cc4ccc(Cl)cc4Cl)c3[nH]2)c(C(=O)O)c1	0.25 µg/mL (≈ 0.493 µM)
Cc1ncsc1CCOc1ccccc1-c1cc(C(=O)Nc2ccc(C#N)cc2C(=O)O)no1	128 µg/mL (≈ 270 µM)
COc1ccc(OC)c(-c2ccc3onc(C(=O)Nc4ccc(C#N)cc4C(=O)O)c3c2)c1	0.25 µg/mL (≈ 0.564 µM)
Cc1sc(C(=O)Nc2ccc(C#N)cc2C(=O)O)cc1S(=O)(=O)N1CCN(c2ccccc2)CC1	8 µg/mL (≈ 15.7 µM)
N#Cc1ccc(NC(=O)c2cc(-c3ccccc3)on2)c(C(=O)O)c1	0.25 µg/mL (≈ 0.75 µM)
O=C(Nc1ccc(Br)cc1C(=O)O)c1cnc(CC(O)[C@H]2COC3(CCCCC3)O2)cn1 (some centres unmarked)	128 µg/mL (≈ 253 µM)
COCC(=O)Nc1ccc2onc(C(=O)Nc3ccc(C#N)cc3C(=O)O)c2c1	4 µg/mL (≈ 10.1 µM)
Cn1c(C(=O)Nc2ccc(C#N)cc2C(=O)O)cc2cccc(OCC(O)COCCOc3ccccc3)c21 (centres unmarked)	0.5 µg/mL (≈ 0.944 µM)
CCC(C)Sc1cnc(C(=O)Nc2ccc(C#N)cc2C(=O)O)cn1 (centres unmarked)	0.25 µg/mL (≈ 0.701 µM)

Structure (SMILES)	MIC
Cn1c(C(=O)Nc2ccc(C#N)cc2C(=O)O)cc2cccc(-c3ccc(C(C)(C)C)cc3)c21	4 µg/mL (≈ 8.86 µM)
CCCCn1c(C(=O)Nc2ccc(C#N)cc2C(=O)O)cc2ccccc21	32 µg/mL (≈ 88.5 µM)
N#Cc1ccc(NC(=O)c2ccc(SCC3CC3)nc2)c(C(=O)O)c1	0.5 µg/mL (≈ 1.41 µM)
O=C(Nc1ccc(Br)cc1C(=O)O)c1ccc(-c2ccc([N+](=O)[O-])cc2)o1	64 µg/mL (≈ 148 µM)
CCN(CC)c1ccc(NS(=O)(=O)c2csc(C(=O)Nc3ccc(Br)cc3C(=O)O)c2C)cc1	64 µg/mL (≈ 113 µM)
C#Cc1cncc(C(=O)Nc2ccc(C#N)cc2C(=O)O)c1	16 µg/mL (≈ 54.9 µM)
N#Cc1ccc(NC(=O)c2cncc(-c3ccccc3)c2)c(C(=O)O)c1	16 µg/mL (≈ 46.6 µM)
O=C(COc1ccccc1-c1cc(C(=O)Nc2ccc(O)cc2C(=O)O)no1)c1ccccc1	0.5 µg/mL (≈ 1.09 µM)
Cl.Cn1c(C(=O)Nc2ccc(C#N)cc2C(=O)O)cc2cccc(OCC(O)CN3CCOCC3)c21 (centres unmarked)	1 µg/mL
Cc1ccccc1-c1cc(C(=O)Nc2ccc(I)cc2C(=O)O)no1	0.5 µg/mL (≈ 1.12 µM)
N#Cc1ccc(NC(=O)c2cc(-c3ccccc3OCC3COc4ccccc4O3)on2)c(C(=O)O)c1 (centres unmarked)	0.25 µg/mL (≈ 0.503 µM)
COc1ccc(-c2cc(C(=O)Nc3ccc(Br)cc3C(=O)O)no2)cc1	0.5 µg/mL (≈ 1.2 µM)
N#Cc1ccc(NC(=O)c2ccco2)c(C(=O)O)c1	> 128 µg/mL
O=C(Nc1ccc(Br)cc1C(=O)O)c1ccnc(SCc2ccccc2)c1	2 µg/mL (≈ 4.51 µM)
O=C(Nc1ccc(Br)cc1C(=O)O)c1cc(SCc2ccccc2)on1	0.125 µg/mL (≈ 0.288 µM)
Cn1c(C(=O)Nc2ccc(C#N)cc2C(=O)O)cc2ccc(-c3ccccc3C(F)(F)F)cc21	0.125 µg/mL (≈ 0.27 µM)
Cn1c(C(=O)Nc2ccc(C#N)cc2C(=O)O)cc2cccc(OCC3CCC3)c21	0.125 µg/mL (≈ 0.31 µM)
O=C(Nc1ccc(Cl)cc1C(=O)O)c1cc(-c2ccccc2NS(=O)(=O)c2ccc(OC(F)(F)F)cc2)on1	8 µg/mL (≈ 13.7 µM)
N#Cc1ccc(NC(=O)c2noc3ccc(S(=O)(=O)Nc4ccccc4)cc23)c(C(=O)O)c1	0.015 µg/mL (≈ 0.0324 µM)
Cn1c(C(=O)Nc2ccc(C#N)cc2C(=O)O)cc2ccccc21	0.25 µg/mL (≈ 0.783 µM)
N#Cc1ccc(NC(=O)c2cc(-c3ccccc3O)on2)c(C(=O)O)c1	0.125 µg/mL (≈ 0.358 µM)
N#Cc1ccc(NC(=O)c2cncc(-c3ccccn3)c2)c(C(=O)O)c1	> 128 µg/mL
CC(Sc1ccc(C(=O)Nc2ccc(C#N)cc2C(=O)O)cn1)c1ccccc1 (centres unmarked)	0.25 µg/mL (≈ 0.62 µM)
Cc1sc(C(=O)Nc2ccc(C#N)cc2C(=O)O)cc1S(=O)(=O)N(C)CCC(O)c1ccccc1 (centres unmarked)	64 µg/mL (≈ 125 µM)
N#Cc1ccc(NC(=O)c2nc3ccccc3[nH]2)c(C(=O)O)c1	4 µg/mL (≈ 13.1 µM)
Cc1sc(C(=O)Nc2ccc(C#N)cc2C(=O)O)cc1S(=O)(=O)N1CCCC(C)C1 (centres unmarked)	2 µg/mL (≈ 4.47 µM)

Same assay, conditions: read-out: SAUR 9218 MIC

Structure (SMILES)	MIC
Cn1c(C(=O)Nc2ccc(C#N)cc2C(=O)O)cc2cccc(NC(=O)CF)c21	1 µg/mL (≈ 2.54 µM)

Reference: patent publication US20040110802A1, “Antibacterial benzoic acid derivatives” (priority 2002, published 2004)
